What was measured:
Format in all cases: cell-based, Mycobacterium smegmatis
[1] = system: M. smegmatis ΔrrnB (bacterial ribosomes); assay: MIC, recombinant M. smegmatis with bacterial (wild-type) ribosomes; details: 72 h at 37° C.
Text: (§1) The strain used for introduction/selection of mutational alterations was a genetically modified derivative of Mycobacterium smegmatis carrying a single functional chromosomal rRNA operon (Sander et al. Mol. Microbiol. 1996, 22: 841-848). This strain, termed M. smegmatis rrn^−, allowed for the selection of mutational rRNA gene alterations using a plasmid carrying the rRNA gene with the respective mutational alteration.)
(§2) The rRNA gene carried on the plasmid encodes either the complete rRNA operon (Prammananan et al. Antimicrob. Agents Chemother. 1999, 43: 447-453) or a non-functional rRNA gene fragment of approximately 1.0 kb (Pfister et al. Antimicrob. Agents Chemother. 2003, 47: 1496-1502). PCR-mutagenesis in vitro was used to generate the mutagenized rRNA gene fragment. In the case of a partial rRNA gene fragment the mutagenized rRNA gene fragment was cloned into vectors pMV261 or pMV361 (Sander et al. Mol. Microbiol. 2002, 46: 1295-1304; Pfister et al. Antimicrob. Agents Chemother. 2003, 47: 1496-1502) to result in vectors carrying a partial rRNA gene fragment of approximately 1.0 kb with the mutational alteration introduced. In the case of plasmids carrying the complete rRNA operon the mutagenized rRNA gene fragment obtained by PCR was cloned into vectors pMV361 rRNA or pMV261 rRNA using appropriate restriction sites (Prammananan et al. Antimicrob. Agents Chemother. 1999, 43: 447-453). Vectors pMV361 rRNA and pMV261 rRNA carried a complete copy of the rRNA operon from M. smegmatis (Sander et al. Mol. Microbiol. 1997, 26: 469-480). Introduction of mutations into the plasmid encoded rRNA was confirmed by sequencing.
(§3) The single rRNA allelic derivative of M. smegmatis, i.e. M. smegmatis rrn, was used for transformation of the plasmids. The strain was made electro-competent and transformed according to standard techniques and as described previously (Sander et al. Mol. Microbiol. 1997, 26: 469-484). Following primary selection, the plasmid-encoded mutational rRNA gene alteration was transferred into the single chromosomal rRNA operon by means of RecA-mediated homologous recombination (Prammananan at al. Antimicrob. Agents Chemother. 1999, 43: 447-453). Introduction of the mutational rRNA gene alteration into the single functional chromosomal rRNA operon by gene conversion was confirmed by sequence determination.
(§4) Ribosomal drug susceptibility was studied by determining the minimal inhibitory concentrations, as described in detail in Pfister et al. 2003 and 2005 (see above).
(§5) The recombinants carrying the respective mutational alterations in the functional rRNA operon were colony-purified and subjected to determinations of minimal inhibitory concentrations (MIC) to determine ribosomal drug susceptibility. Cultures from single colonies were grown in LB medium supplemented with 0.05% Tween 80 and used for MIC tests in a microtiter plate format. Starting cultures contained 200 μl of bacterial cells at an optical density of 0.025 at 600 nm, and the respective drug was added in twofold series of dilution.
(§6) Key nucleotides which distinguish the prokaryotic from the eukaryotic decoding site are 16S rRNA positions 1408 (bacterial ribosome: A, eukaryotic cytosolic ribosomes: G) and 1491 (bacterial ribosomes: G, eukaryotic cytosolic ribosomes: A, eukaryotic mitochondrial ribosome: C).

[2] = system: M. smegmatis ΔrrnB 1408G (16S rRNA position 1408 G, eukaryotic cytosolic ribosomes); assay: MIC, recombinant M. smegmatis with mutant ribosomes 1408G; details: M. smegmatis ΔrrnB 1408G mutant ribosomes; 72 h at 37° C.
Text: as §1, §2, §3, §4, §5, §6

[3] = system: M. smegmatis ΔrrnB 1491A (16S rRNA position 1491 A, eukaryotic cytosolic ribosomes); assay: MIC, recombinant M. smegmatis with mutant ribosomes 1491A; details: M. smegmatis ΔrrnB 1491A mutant ribosomes; 72 h at 37° C.
Text: as §1, §2, §3, §4, §5, §6

[4] = system: M. smegmatis ΔrrnB 1491C (16S rRNA position 1491 C, eukaryotic mitochondrial ribosome); assay: MIC, recombinant M. smegmatis with mutant ribosomes 1491C; details: M. smegmatis ΔrrnB 1491C mutant ribosomes; 72 h at 37° C.
Text: as §1, §2, §3, §4, §5, §6

Row | Structure (SMILES) | minimal inhibitory concentrations ΔrrnB [1] | minimal inhibitory concentrations ΔrrnB 1408G [2] | minimal inhibitory concentrations ΔrrnB 1491A [3] | minimal inhibitory concentrations ΔrrnB 1491C [4]
1 | COc1ccc([C@@H]2OC[C@H]3O[C@H](O[C@H]4[C@H](O[C@@H]5O[C@H](CO)[C@@H](O[C@H]6O[C@@H](CN)[C@@H](O)[C@H](O)[C@H]6N)[C@H]5O)[C@@H](O)[C@H](N)C[C@@H]4N)[C@H](N)[C@@H](O)[C@@H]3O2)cc1 [Compound 5.2, 4′,6′-O-p-Methoxybenzylideneparomomycin] | 4 mg/L | >512 mg/L | >512 mg/L | >512 mg/L
2 | CC(=O)O.CC(=O)O.CC(=O)O.CC(=O)O.COc1cccc(C2OCC3OC(OC4C(N)CC(N)C(O)C4OC4OC(CO)C(OC5OC(CN)C(O)C(O)C5N)C4O)C(N)C(O)C3O2)c1 (stereo not shown) [Compound 5.3, 4′,6′-O-m-Methoxybenzylideneparomomycin tetraacetate] | 4 to 8 mg/L | 256 to 512 mg/L | 512 mg/L | >512 mg/L
3 | COc1ccccc1[C@@H]1OC[C@H]2O[C@H](O[C@H]3[C@H](O[C@@H]4O[C@H](CO)[C@@H](O[C@H]5O[C@@H](CN)[C@@H](O)[C@H](O)[C@H]5N)[C@H]4O)[C@@H](O)[C@H](N)C[C@@H]3N)[C@H](N)[C@@H](O)[C@@H]2O1 [Compound 5.4, 4,6′-O-o-Methoxybenzylideneparomomycin] | 8 to 16 mg/L | >512 mg/L | >512 mg/L | >512 mg/L
4 | COc1ccc(OC)c(C2OC[C@H]3O[C@H](O[C@H]4[C@H](O[C@@H]5O[C@H](CO)[C@@H](O[C@H]6O[C@@H](CN)[C@@H](O)[C@H](O)[C@H]6N)[C@H]5O)[C@@H](O)[C@H](N)C[C@@H]4N)[C@H](N)[C@@H](O)[C@@H]3O2)c1 (stereo partly shown) [Compound 5.5, 4′,6′-O-2,5-Dimethoxybenzylideneparomomycin] | 4 to 8 mg/L | ≧512 μg/ml | >512 mg/L | >512 mg/L
5 | NC[C@@H]1O[C@H](O[C@H]2[C@@H](O)[C@H](O[C@@H]3[C@@H](O)[C@H](N)C[C@H](N)[C@H]3O[C@H]3O[C@@H]4CO[C@@H](c5ccc([N+](=O)[O-])cc5)O[C@H]4[C@H](O)[C@H]3N)O[C@@H]2CO)[C@H](N)[C@@H](O)[C@@H]1O [Compound 5.6, 4′,6′-O-p-Nitrobenzylideneparomomycin] | 4 mg/L | 512 mg/L | >512 mg/L | >512 mg/L
6 | CC(=O)O.CC(=O)O.CC(=O)O.NC[C@@H]1O[C@H](O[C@H]2[C@@H](O)[C@H](O[C@@H]3[C@@H](O)[C@H](N)C[C@H](N)[C@H]3O[C@H]3O[C@@H]4COC(c5cccc([N+](=O)[O-])c5)O[C@H]4[C@H](O)[C@H]3N)O[C@@H]2CO)[C@H](N)[C@@H](O)[C@@H]1O (stereo partly shown) [Compound 5.7, 4,6′-O-m-Nitrobenzylideneparomomycin triacetate] | 2 to 4 mg/L | 256 to 512 mg/L | 256 mg/L | >512 mg/L
7 | NC[C@@H]1O[C@H](O[C@H]2[C@@H](O)[C@H](O[C@@H]3[C@@H](O)[C@H](N)C[C@H](N)[C@H]3O[C@H]3O[C@@H]4CO[C@@H](c5cc(Cl)cc(Cl)c5)O[C@H]4[C@H](O)[C@H]3N)O[C@@H]2CO)[C@H](N)[C@@H](O)[C@@H]1O [Compound 5.9, 4,6′-O-3,5-Dichlorobenzylideneparomomycin] | 4 mg/L | 128 to 256 mg/L | 128 to 256 mg/L | 128 mg/L
8 | N#Cc1ccc([C@@H]2OC[C@H]3O[C@H](O[C@H]4[C@H](O[C@@H]5O[C@H](CO)[C@@H](O[C@H]6O[C@@H](CN)[C@@H](O)[C@H](O)[C@H]6N)[C@H]5O)[C@@H](O)[C@H](N)C[C@@H]4N)[C@H](N)[C@@H](O)[C@@H]3O2)cc1 [Compound 5.10, 4,6′-O-p-Cyanobenzylideneparomomycin] | 16 to 32 mg/L | >512 mg/L | >512 mg/L | >512 mg/L
9 | NC[C@@H]1O[C@H](O[C@H]2[C@@H](O)[C@H](O[C@@H]3[C@@H](O)[C@H](N)C[C@H](N)[C@H]3O[C@H]3O[C@@H]4CO[C@@H](c5ccc(-c6ccccc6)cc5)O[C@H]4[C@H](O)[C@H]3N)O[C@@H]2CO)[C@H](N)[C@@H](O)[C@@H]1O [Compound 5.11, 4′,6′-O-p-Phenylbenzylideneparomomycin] | 64 mg/L | 128 mg/L | 64 to 128 mg/L | 64 mg/L
10 | NC[C@@H]1O[C@H](O[C@H]2[C@@H](O)[C@H](O[C@@H]3[C@@H](O)[C@H](N)C[C@H](N)[C@H]3O[C@H]3O[C@@H]4CO[C@@H](c5ccc(F)cc5)O[C@H]4[C@H](O)[C@H]3N)O[C@@H]2CO)[C@H](N)[C@@H](O)[C@@H]1O [Compound 5.12, 4,6′-O-p-Fluorobenzylideneparomomycin] | 2 to 4 mg/L | >512 mg/L | >512 mg/L | >512 mg/L
11 | COc1cc(OC)cc([C@@H]2OC[C@H]3O[C@H](O[C@H]4[C@H](O[C@@H]5O[C@H](CO)[C@@H](O[C@H]6O[C@@H](CN)[C@@H](O)[C@H](O)[C@H]6N)[C@H]5O)[C@@H](O)[C@H](N)C[C@@H]4N)[C@H](N)[C@@H](O)[C@@H]3O2)c1 [Compound 5.13, 4′,6′-O-3,5-Dimethoxybenzylideneparomomycin] | 32 mg/L | >512 mg/L | >512 mg/L | >512 mg/L
12 | COc1cc([C@@H]2OC[C@H]3O[C@H](O[C@H]4[C@H](O[C@@H]5O[C@H](CO)[C@@H](O[C@H]6O[C@@H](CN)[C@@H](O)[C@H](O)[C@H]6N)[C@H]5O)[C@@H](O)[C@H](N)C[C@@H]4N)[C@H](N)[C@@H](O)[C@@H]3O2)cc(OC)c1OC [Compound 5.14, 4′,6′-O-3,4,5-Trimethoxybenzylideneparomomycin] | 32 to 64 mg/L | >512 mg/L | >512 mg/L | >512 mg/L
13 | NC[C@@H]1O[C@H](O[C@H]2[C@@H](O)[C@H](O[C@@H]3[C@@H](O)[C@H](N)C[C@H](N)[C@H]3O[C@H]3O[C@@H]4CO[C@@H](c5cccc(Cl)c5)O[C@H]4[C@H](O)[C@H]3N)O[C@@H]2CO)[C@H](N)[C@@H](O)[C@@H]1O [Compound 5.15, 4′,6′-O-m-chlorobenzylideneparomomycin] | 2 to 4 mg/L | 256 to 512 mg/L | 512 mg/L | 512 mg/L

— patent publication US8546343B2, “Aminoglycoside antibiotics targeting bacterial 16S ribosomal RNA” (Eidgenoessische Technische Hochschule Zurich, priority 2007, dated 2013)
